Experimental data from the METLIN SMRT retention time set (Domingo-Almenara et al. 2019).

Experiment: gradient 5% acetonitrile 3 min, to 50% in 2 min, to 85% in 15 min, held 3 min, 100 µL/min
Conditions: column: Zorbax Extend-C18 2.1 x 50 mm; eluents: water / acetonitrile, 0.1% formic acid
How it was run: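 A Zorbax Extend-C18 column (2.1 × 50 mm, 1.8 μm) run at 100 μL/min with water and acetonitrile, both containing 0.1% formic acid, separated mixtures of ~100 pure standards. The HPLC was coupled to a quadrupole time-of-flight mass spectrometer operated in positive and negative ionization mode, with dead and dwell volumes of 40 μL and 900 μL. Each retention time was taken from a computationally picked adduct peak that was then manually inspected.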

Row | SMILES | RP-LC retention time
1 | O=C(NCC1(O)CCCC1)C1CC(=O)N(c2ccccc2)C1 (stereo not drawn) | 624 s
2 | O=C(CCCSc1ccc(NC(=O)c2cccs2)nn1)Nc1cnc2ccccc2c1 | 706 s
3 | Cc1nc(OCC(=O)NCc2ccc(Cl)cc2)c2c(C)c(C)oc2n1 | 941 s
4 | CN(Cc1ccoc1)C(=O)Nc1ccccc1 | 785 s
5 | O=C(NC1CC1)c1ccc(-n2cccc2)nc1 | 728 s
6 | O=C(CCc1c(-c2ccccc2)nc2ccccn12)NCc1cccc(Cl)c1 | 681 s
7 | COc1ccc(-c2noc(-c3c(SC)nn(CC(=O)Nc4ccccc4)c3N)n2)cc1 | 934 s
8 | CCCn1c(=O)c(C)nc2cc(-c3noc(Cc4ccc(OC)cc4)n3)ccc21 | 1040 s
9 | Cc1ccc(C(=O)N2CCC[C@H]2c2nc(-c3ccccc3)n[nH]2)s1 | 740 s
10 | CC1CN(CC(=O)N2CCN(c3ncccn3)CC2)c2ccccc2S1 (stereo not drawn) | 918 s
11 | O=C(Nc1cccc(Cl)c1)C1CCN(c2cc(N3CCCC3)ncn2)CC1 | 714 s
12 | CCN(CC)C(=O)c1ccc2c(c1)N(C(=O)NC)CC2 | 648 s
13 | Cc1cccc(-n2cc(C(=O)OCC(=O)OC(C)(C)C)c3ccccc3c2=O)c1 | 1210 s
14 | O=C1Nc2ccc(I)cc2C1=Cc1cc(Br)c(O)c(Br)c1 | 1090 s
15 | O=C(CN1CCCc2nc(C3CC3)ncc2C1=O)NCC1CC1 | 638 s
16 | O=C(Nc1ccccc1Cl)N(CCc1cccs1)C1CC1 | 1120 s
17 | COc1ccc(C2Cn3nnc(-c4nc(-c5ccc(C)cc5)no4)c3CO2)cc1 (stereo not drawn) | 1180 s
18 | Cc1[nH]c2ccccc2c1C(=O)C(=O)N(C)c1ccccc1 | 767 s
19 | Cc1ccc(Cn2c(=O)n(CCNC(=O)c3ccsc3)c3ncccc32)cc1 | 794 s
20 | C=CCSC(CC)(CC)C(N)=O | 805 s

Row | SMILES | RP-LC retention time
21 | COc1cccc(C(=O)NC2CCN(c3cc(-c4cccs4)[nH]n3)C2)c1 (stereo not drawn) | 700 s
22 | CC(=O)N1CCCC1c1nc2ccccc2n1CC(=O)N1CCC(C)CC1 (stereo not drawn) | 567 s
23 | O=C(O)c1cc(-c2ccco2)n(C2CCS(=O)(=O)C2)n1 (stereo not drawn) | 604 s
24 | O=C(Cc1csc(-c2ccccc2)n1)Nc1nc(-c2ccccc2)cs1 | 1130 s
25 | Cc1cc(Cn2cnc3c2C[C@@H](C(=O)O)N(C(=O)C(c2ccccc2)c2ccccc2)C3)ccc1N | 700 s
26 | COC(=O)c1c(-c2ccccc2)noc1NCc1ccc(C)o1 | 989 s
27 | CNC(=O)c1sc2nc(-c3ccccc3)c(NCCOC)n2c1C | 637 s
28 | CCOc1ccc(-c2noc(Cn3nc(-c4ccc(C)cc4)ccc3=O)n2)cc1 | 1160 s
29 | COc1ccc(-c2nc3cnccn3c2Nc2cccc(Cl)c2C)cc1OC | 890 s
30 | CCc1ccc2c(c1)-c1ccccc1S(=O)(=O)N2CC(=O)NCCCn1ccnc1 | 675 s
31 | Cc1cc(OC(C)C(=O)N2CCC3(O)CCCCC3C2)c2c3c(c(=O)oc2c1)CCCC3 (stereo not drawn) | 892 s
32 | Cc1nc(N2CCCC2)cc(N2CCN(C(=O)c3ccc(Br)o3)CC2)n1 | 645 s
33 | CCOc1ccc(-c2noc(Cc3nc(-c4cccc(OC)c4)cs3)n2)cc1 | 1230 s
34 | O=C(N[C@@H]1CN(C(=O)C2CC2)CC[C@@H]1CO)C1CC1 | 576 s
35 | Cc1nc(Nc2ccc(F)cn2)sc1C(=O)NCCCc1ccccc1 | 883 s
36 | Clc1ccc2nc(-c3ccccc3)c(Nc3ccc4c(c3)OCO4)n2c1 | 781 s
37 | O=C(CN1C(=O)CC(c2cccs2)=Nc2ccccc21)NCc1ccccc1 | 876 s
38 | CCc1ccc(CN2CCC3(CC2)CC(O)(COC)CCO3)cc1 (stereo not drawn) | 575 s
39 | O=C(C1Cc2ccccc2CN1S(=O)(=O)c1cccs1)N1CCCCCC1 (stereo not drawn) | 932 s

Continued, values first:

Row | RP-LC retention time | SMILES
40 | 706 s | COc1ccc2[nH]c(C(=O)N3CCN(C(=O)c4ccco4)CC3)cc2c1
41 | 739 s | Cc1ccc(-c2ncccc2CNS(=O)(=O)Cc2cc(F)cc(F)c2)cc1
42 | 1250 s | Cc1cc(C)c(S(=O)(=O)N2CCCCC2C(=O)N2CCN(c3ccccc3F)CC2)c(C)c1 (stereo not drawn)
43 | 660 s | NS(=O)(=O)c1ccc(CCNC(=O)c2cn3cc(Cl)ccc3n2)cc1
44 | 892 s | Cc1ccc(-n2c(=O)n(C)c(=O)c3cc(C(=O)Nc4ccc5c(c4)OCCO5)cnc32)cc1
45 | 957 s | COc1ccc(OC)c(CNC(=O)C2CCCN(c3nccnc3Oc3ccccc3)C2)c1 (stereo not drawn)
46 | 583 s | COCCN1CCC(N2CCN(S(=O)(=O)c3ccc(OC)c(Cl)c3)CC2)C1=O (stereo not drawn)
47 | 1270 s | Cc1ccc(C)c(S(=O)(=O)N2CCCC2c2nc(-c3ccc(Cl)cc3)no2)c1 (stereo not drawn)
48 | 823 s | COCCCNC(=O)c1cc2c(n(-c3ccc(C(F)(F)F)cc3)c1=O)CCCC2=O
49 | 586 s | CN1c2cc(C(=O)NC3CCN(Cc4ccccc4)CC3)ccc2C(=O)N2CCCCC21 (stereo not drawn)
50 | 635 s | CCCNC(=O)c1ccc2c(c1)CCN2C(C)=O
51 | 680 s | Cc1cc(C(=O)N2CC(C(=O)NCCc3ccc(F)cc3)C2)no1
52 | 875 s | Cc1cc2c(c(=O)n(-c3ccc(F)cc3)c(=O)n2CC(=O)Nc2cc(F)ccc2F)n1C
53 | 873 s | Cn1c(=O)n(C)c2cc(S(=O)(=O)c3ccc(F)cc3)c(NC(=O)Cc3cccc(F)c3)cc21
54 | 707 s | CCCS(=O)(=O)N1CCc2c(c(CN(C(C)=O)c3ccccc3)nn2C)C1
55 | 884 s | Cc1nn(-c2ccccc2)c(C)c1S(=O)(=O)N1CCC(C(=O)NCc2ccc3c(c2)OCO3)CC1
56 | 811 s | CCn1cc(C)c(C(=O)O)c1CC(=O)N1CCCc2ccccc21
57 | 806 s | CC1=C(c2ccc(F)cc2)S(=O)(=O)N=C1N1CCCN(C(=O)Nc2ccccc2)CC1
58 | 679 s | Cc1ccn2cc(-c3ccc(NS(=O)(=O)c4ccc(Cl)cc4)cc3)nc2n1
59 | 792 s | O=C(CN1C(=O)CCCc2cc(S(=O)(=O)N3CCCC3)ccc21)NCc1ccc(F)cc1
60 | 892 s | Cc1cc(C)n(-c2ccc(CNC(=O)c3ccc(Cl)s3)cc2)n1
61 | 913 s | O=C(NCc1ccc(F)cc1Cl)C1=C2CCCN2c2ccccc2S1(=O)=O
62 | 776 s | O=C(NCC1CN(c2ccccc2)C(=O)O1)Nc1ccccc1Cl (stereo not drawn)
63 | 1130 s | COC(=O)c1ccccc1NC(=O)CSc1cc(-n2nc(C)cc2C)ncn1
64 | 679 s | Cc1ccccc1-n1ccn(Cc2nc(-c3ccc(Cl)c(F)c3)no2)c(=O)c1=O

Row | RP-LC retention time | SMILES
65 | 926 s | Cc1ccc(NC(=O)CSc2nnc(NC(=O)c3cc(C4CC4)on3)s2)cc1Cl
66 | 892 s | COCc1cc(=O)n(CC(=O)Nc2ccc(Br)cc2)c(N2CCOCC2)n1
67 | 676 s | O=C(c1cc(-c2ccccc2Cl)nc2ccccc12)N1CCN(c2ccccn2)CC1
68 | 701 s | O=C1CCN(S(=O)(=O)c2ccccc2)CCCN(C(=O)Nc2ccc3c(c2)OCCO3)CCN1
69 | 666 s | CC1Cc2cc(S(=O)(=O)CCC(=O)N3CCN(Cc4ccccc4)CC3)ccc2N1C(=O)C1CC1 (stereo not drawn)
70 | 893 s | COCCCN1C(=O)CSc2c(c3ccccc3n2C)C1C(=O)NCc1ccccc1OC (stereo not drawn)
71 | 674 s | Cc1ccc(-c2cc3c(=O)n(Cc4noc(CN5CCCCC5C)n4)ccn3n2)cc1 (stereo not drawn)
72 | 913 s | O=C(CN1c2ccc(F)cc2-c2ccccc2S1(=O)=O)NCc1ccc2c(c1)OCO2
73 | 729 s | COc1ccccc1OCc1nc(-c2ccc3ncn(C(C)C)c3c2)no1
74 | 698 s | COc1ccc(N2CCN(CC(O)COc3c(C)cccc3C)CC2)cc1 (stereo not drawn)
75 | 639 s | NC(=O)C1CCN(C(=O)Cn2c(=O)nc(-c3ccccc3)c3cc(Cl)ccc32)CC1
76 | 867 s | CN(Cc1ccccc1)C(=O)C1CCN(S(=O)(=O)Cc2ccccc2)CC1
77 | 827 s | Cc1cc(S(=O)(=O)N2CCC(n3c(-c4ccoc4)nc4cccnc43)C2)ccc1F (stereo not drawn)
78 | 734 s | CCC(=O)N1CCc2c(sc3ncnc(N4CCc5ccccc54)c23)C1
79 | 1060 s | COc1ccc(CN2C=C(C(=O)OCc3nc(-c4ccccc4F)no3)C(C)=NS2(=O)=O)cc1
80 | 788 s | CC(C)N1CCn2cc(S(=O)(=O)NCc3ccc(F)cc3Cl)cc2C1=O
81 | 821 s | CC1=C(c2ccccc2)S(=O)(=O)N=C1N1CCCN(C(=O)c2ccc(C)s2)CC1
82 | 978 s | CCOc1cccc(-c2noc(-c3nn(-c4cccc(F)c4)ccc3=O)n2)c1
83 | 927 s | COC(=O)c1ccc(CSc2nnc(N3CCN(c4ccc(F)cc4)CC3)s2)o1
84 | 734 s | COc1ccc(NS(=O)(=O)c2cc3c(s2)CCN(C(=O)C2CC2)C3)cc1OC
85 | 616 s | Cc1noc(C)c1S(=O)(=O)NCCn1c(C)cnc1-c1ccccc1
86 | 852 s | Cc1cc(C)cc(C(=O)N2CCC3(CC2)NC(=O)c2cc(C)ccc2N3C)c1
87 | 898 s | CCOc1ccccc1C(=O)N1CCN=C1SCc1ccc([N+](=O)[O-])cc1
88 | 1190 s | CC1CCCCN1S(=O)(=O)c1ccc(C(=O)Nc2nc3c(s2)Cc2ccccc2-3)cc1 (stereo not drawn)
